Experimental data: US12448393B2, “Use of novel compound, for preventing, improving or treating amyotrophic lateral sclerosis” (PRG S&TECH INC., priority 2019, dated 2025)
“Also recorded” adds a separate entry of the source.

Legend:
[1] = tested on: WT-SOD1 and mutant SOD1-GST (A4V, G37R, G85R, G93A); test: ELISA compound screening for binding inhibitor between WT-SOD1 and mutant SOD1; parameters: species or system human
Description: For compound screening, the present inventors applied an ELISA assay system. To select a binding inhibitor between WT-SOD1 and mutant SOD1, the present inventors used 0.5% paraformaldehyde (PFA) to fix WT-SOD1 recombinant protein on a 96-well plate. The plate was dried, washed with phosphate-buffered saline (PBS), and reacted with the compounds at a final concentration of 50 μM, and then mutant SOD1-GST (A4V, G37R, G85R, G93A) proteins were added. After 2 hours of reaction, the 96-well plate was washed with PBS and blocked with 3% skim milk to prevent non specific reaction. The plate was reacted with anti-GST antibody (diluted at 1:10,000) for 1 hour, and then reacted with anti-mouse IgG-HRP (diluted at 1:50,000) for 1 hour. After washing twice, the plate was reacted with a 3,3′,5,5′-tetramethylbenzidine (TMB) solution (Calbiochem) for 30 minutes and a stop solution (1N H2SO4) for 30 minutes. Finally, the present inventors analyzed values using an ELISA reader (450 nm absorbance). Negative control (−; red line) was reacted without mutant SOD1, and positive control (+; blue line) was reacted with mutant SOD1 without the compounds.
(§1) To prepare recombinant proteins, human SOD1 (WT, A4V, G37R, G85R, G93A) was added to EcoRI and HindIII sites of pGEX-TEV vector, an improved vector made by adding a TEV protease cleavage site to pGEX-4T1 (Invitrogen). The recombinant proteins were expressed as GST-fusion proteins in Escherichia coli (E. coli) strain BL21 (DE3). The proteins were purified by glutathione-affinity chromatography.

misfolded SOD1 [2] = target: misfolded SOD1 (Homo sapiens, UniProt P00441, G94A); test: Dot blot analysis of misfolded SOD1 in transfected cell lysates; type: cell-based; conditions: G93A-transfected cell lysates; FIG. 5E
Description: (§2) To detect misfolded SOD1 expression, cells transfected with SOD1 vector were treated with the compounds for 24 hours. After reaction, the cells were lysed with a lysis buffer without surfactant, and then cell lysate was fixed on a nitrocellulose membrane using a Bio-Dot SF Microfiltration apparatus (Bio-Rad Laboratories, Hercules, CA). In the case of peptide reaction, SOD1 recombinant proteins were reacted with the compounds for 1 hour, and then samples were loaded onto membrane. Each membrane was washed with TBS and blocked with 3% skim milk to prevent non specific reaction. After blocking, the membrane was reacted with the misfolded SOD1 or Actin antibody (1:8,000 in TBST including 1% skim milk) for 30 minutes, and then with a secondary antibody (goat anti-mouse IgG-horseradish peroxidase, 1:50,000 in 1% skim milk blocking buffer) for 30 minutes. Antibodies reacted to proteins were detected by ECL and X-ray film exposure. Actin was used as a loading control.

misfolded SOD1 [3] = test: as above; type: cell-based, human; conditions: lysates of cells transfected with WT- or mutant SOD1; FIG. 5D
Description: as §2

SOD1-G93A = target: T1, SOD1-G93A (Homo sapiens, UniProt P00441, G94A); test: Dot blot analysis of recombinant SOD1 reacted with compound; type: biochemical; conditions: FIG. 5F
T1 construct: GST (TEV site) (N); made in house; host or cells: Escherichia coli BL21 (DE3)
Description: as §1, §2

T1 sequence (P00441 whole entry G94A): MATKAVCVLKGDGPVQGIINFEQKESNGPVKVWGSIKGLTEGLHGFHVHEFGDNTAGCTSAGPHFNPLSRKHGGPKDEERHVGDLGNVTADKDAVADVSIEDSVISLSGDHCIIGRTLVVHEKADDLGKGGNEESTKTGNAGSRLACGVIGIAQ
Sequence of misfolded SOD1 (Homo sapiens, UniProt P00441, G94A) (P00441 2-154 G94A): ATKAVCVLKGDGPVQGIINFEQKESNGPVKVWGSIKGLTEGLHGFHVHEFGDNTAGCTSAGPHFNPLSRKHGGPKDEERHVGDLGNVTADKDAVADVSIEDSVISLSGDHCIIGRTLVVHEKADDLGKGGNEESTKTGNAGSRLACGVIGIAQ

COc1cc(/C=C/C(=O)O[C@H]2Cc3cc4ccc(=O)oc4cc3OC2(C)C)ccc1O [PRG-A-01, (S)-8,8-dimethyl-2-oxo-7,8-dihydro-2H,6H-pyrano[3,2-g]chromen-7-yl (E)-3-(4-hydroxy-3-methoxyphenyl) acrylate]
ELISA ([1]; Table 1, compounds at final concentration of 50 μM): Effect ○ | binding inhibition in ELISA compound screening ([1]; WT-SOD1 fixed on plate, GST-tagged mutant SOD1s, FIG. 3A): specific for mutation | misfolded SOD1, dot blot, according to doses (misfolded SOD1 [2]): dose-dependent decrease in misfolded SOD1 | misfolded SOD1, dot blot (misfolded SOD1 [3]): reduces misfolding formation of SOD1; also recorded: band intensity clearly decreased | recognition of mutant SOD1 by misfolding-specific antibody (SOD1-G93A): inhibits misfolding of mutant SOD1; also recorded: antibody specific for misfolding did not recognize mutant SOD1
